Read-outs that look alike come from different tables or passages of the source.
Legend:
[1] = single dose toxicity and pharmacokinetics, rabbit; format: in vivo, New Zealand White rabbits; details: for AUC(0-inf) / Cmax: plasma, single i.v. 25 mg/kg (NOAEL); for AUC∞ Ratio to Phase I / Cmax Ratio to Phase I / Cmax Ratio to Phase II: single i.v. 25 mg/kg; for AUC∞ Ratio to Phase I / Cmax Ratio to Phase I: vs human 150 mg Phase I; for Cmax Ratio to Phase II: vs human 150 mg Phase II
Procedure: The pharmacokinetics of dexanabinol of high enantiomeric purity formulated in CREMOPHOR EL®:ethanol as described in Example 4 were investigated in rats, rabbits, and monkeys following intravenous administration of single doses, and 14 and 28 days of repeated dosing. Human pharmacokinetics was studied during Phase I and Phase II clinical studies. Dexanabinol used in the pharmacokinetic studies was formulated as drug concentrates of 50 and 100 mg/ml and diluted with sterile 0.9% NaCl solution prior to intravenous (i.v.) administration to the desired final doses. Determination of dexanabinol concentrations in plasma and brain extracts was carried out using a validated Gas Chromatography-Mass Spectra (GC-MS) assay following solid phase extraction of the drug and derivatization. The limit of quantitation of the assay is 0.1 ng/ml.
Pharmacokinetic parameters were estimated by a non-compartmental method using WinNonlin Professional version 3.2 (Pharsight Corp., Mountain View, Calif.). The maximum plasma concentration (Cmax), when the drug is administered by infusion, is the concentration at the end of infusion. The Cmax following intravenous bolus administration is the value estimated by the software to be the concentration at t=0. The terminal slope (X) was estimated by linear regression through the last time points and used to calculate the terminal half-life (t1/2) from the following equation: t1/2=0.693/λ The area under the curve from time of dosing through the last time point (AUCz) was calculated by the linear trapezoid method. The AUC extrapolated to infinity (AUC∞) was calculated from the following equation: AUC∞=AUCz+Cz/λ where Cz is the concentration at the last time point predicted by the linear regression. AUC∞ was normalized for dose (mg/kg) and presented as AUC∞/Dose. Mean residence time (MRT), when the drug is administered by infusion is described by the following equation: MRT=(AUMC/AUC)−(TI)/2 Mean residence time after i.v. bolus administration is described by the following equation: MRT=(AUMC/AUC) where AUMC is the area under the first moment curve and TI is the length of infusion. Plasma clearance (CL), and the apparent volume of distribution at steady state (Vss) were calculated from the following equations: CL=Dose/AUC∞ Vss=MRT×CL
Table 6 summarizes the maximum plasma concentration (Cmax) and the area under the plasma concentration versus time curve (AUC) observed at the NOAEL doses cited above, as well as the animal to human exposure ratios (ER) for dexanabinol of high enantiomeric purity, expressed as the ratio of the pharmacokinetic (PK) parameter to that observed for a 150 mg dose in a Phase I study in human volunteers and in Phase II study in patients suffering from severe traumatic brain injury (TBI).

[2] = Phase II study, single i.v. dose in patients with severe head trauma; format: in vivo, human; details: human, plasma, iv, severe TBI patients, mean ± SE; for AUC / Cmax: up to 24 hr; for Vd: read-out: Vss
Procedure: A Phase II, double masked, multi-center study was conducted to evaluate the safety and tolerance of dexanabinol of high enantiomeric purity following a single intravenous administration in patients with severe head trauma (Knoller N. et al., Crit. Care Med. 30: 548-54, 2002). Treatment was administered within 6 hours of injury, based on the therapeutic window observed in relevant animal models. Additional objectives of the study were to evaluate the long-term outcome of the patients and to determine the optimal dose for Phase III studies.
Medical information was collected en route or upon arrival at the hospital to determine a patient's suitability for enrollment and a randomized patient number was assigned. Written informed consent was obtained from relatives, all eligible patients being in coma. Antihistamines (promethazine hydrochloride PHENERGAN® 25 mg and cimetidine 50 mg) were administered by intravenous bolus injection 15 minutes prior to study drug administration. Dexanabinol was manufactured and formulated as previously described (50 mg/ml in CREMOPHOR EL®:ethanol clinical formulation) and diluted into 100 ml saline prior to injection. Solutions of dexanabinol were infused intravenously using a peristaltic pump (Ivac) at a rate of 6 ml/min (or approximately 15 min/dose). The total doses of dexanabinol scheduled to be administered were 48, 150, or 200 mg per patient. Five milliliters of blood were removed (from the contralateral arm) at the end of the infusion, at 10 and 30 min, and at 1, 3, 6, 12, and 24 hours thereafter for determination of plasma dexanabinol concentrations. Pharmacokinetic parameters were estimated by non-compartmental methods (WinNonlin Professional version 3.2) up to 24 hr post-injection.
Primary end points included intracranial pressure (ICP), cardiovascular function (heart rate, mean arterial blood pressure, cerebral perfusion pressure and electrocardiogram), clinical laboratory tests, and adverse medical events. The clinical outcome was assessed by the Glasgow outcome scale throughout a six month follow-up period. The nature and incidence of adverse medical events were similar in all groups supporting the safety of dexanabinol of high enantiomeric purity. […] Dexanabinol is currently being tested in a Phase III clinical trial for TBI.

[3] = ocular toxicity, topical instillation for five days four times daily; format: in vivo, rabbits; details: dexanabinol in SME, slit lamp
Procedure: Ocular toxicity was tested as follows. Two groups of five animals each received topical instillation of dexanabinol in SME and blank SME for five days four times daily. The animals were examined daily with a slit lamp for ocular discharge, conjunctival hyperemia, corneal fluorescein staining and iris hyperemia. Results were scored on a 0.0-4.0 scale in 0.5 steps.

[4] = New Zealand White, iv, rabbit female
[5] = New Zealand White, iv, rabbit male
[6] = both sexes, New Zealand White, iv, rabbit male & female
[7] = 48 mg single i.v. infusion (n = 10)
[8] = 150 mg single i.v. infusion (n = 20)
[9] = 200 mg single i.v. infusion (n = 21)

**Q.** With `CCCCCCC(C)(C)c1cc(O)c2c(c1)OC(C)(C)[C@H]1CC=C(CO)C[C@H]21` [dexanabinol, 1,1-dimethylheptyl-(3S,4S)-7-hydroxy-Δ^6-tetrahydrocannabinol] as the compound, how does the AUC(0-inf) [1, 4] read?
**A.** 16200 ng·h/mL

**Q.** And the Cmax [1, 4]?
**A.** 34500 ng/mL

**Q.** What about the AUC(0-inf) [1, 5] of the same compound?
**A.** 20100 ng·h/mL

**Q.** What about the Cmax [1, 5] of the same compound?
**A.** 33800 ng/mL

**Q.** And the NOAEL ([1]; New Zealand White, rabbit, in vivo, iv, single dose i.v., read-out: no observed adverse effect level (NOAEL))?
**A.** 25 mg/kg

**Q.** What about the AUC(0-inf) [1, 6] of the same compound?
**A.** 18200 ng·h/mL

**Q.** And the Cmax [1, 6]?
**A.** 33400 ng/mL

**Q.** And the “AUC∞ Ratio to Phase I” value ([1]; rabbit female)?
**A.** 5.1

**Q.** What about the “Cmax Ratio to Phase I” value ([1]; rabbit female) of the same compound?
**A.** 6.9

**Q.** What about the “Cmax Ratio to Phase II” value ([1]; rabbit female) of the same compound?
**A.** 17.6

**Q.** And the “AUC∞ Ratio to Phase I” value ([1]; rabbit male & female)?
**A.** 5.7

**Q.** And the “Cmax Ratio to Phase I” value ([1]; rabbit male & female)?
**A.** 6.7

**Q.** What about the “Cmax Ratio to Phase II” value ([1]; rabbit male & female) of the same compound?
**A.** 17.0

**Q.** What about the “AUC∞ Ratio to Phase I” value ([1]; rabbit male) of the same compound?
**A.** 6.3

**Q.** And the “Cmax Ratio to Phase I” value ([1]; rabbit male)?
**A.** 6.8

**Q.** And the “Cmax Ratio to Phase II” value ([1]; rabbit male)?
**A.** 17.2

**Q.** What about the AUC(0-inf) [2, 7] of the same compound?
**A.** 572 ng·h/mL

**Q.** What about the MRT [2, 7] of the same compound?
**A.** 4.1 ± 0.7 h

**Q.** What about the clearance [2, 7] of the same compound?
**A.** 22.6 ± 3.9 mL/min/kg

**Q.** What about the half-life [2, 7] of the same compound?
**A.** 7 ± 0.9 h

**Q.** And the AUC [2, 7]?
**A.** 548 ng·h/mL

**Q.** And the Cmax [2, 7]?
**A.** 1150 ng/mL

**Q.** And the Vd [2, 7]?
**A.** 6.6 ± 2.6 L/kg

**Q.** And the AUC(0-inf) [2, 8]?
**A.** 1480 ng·h/mL

**Q.** What about the MRT [2, 8] of the same compound?
**A.** 3.8 ± 0.4 h

**Q.** What about the clearance [2, 8] of the same compound?
**A.** 31 ± 5.8 mL/min/kg

**Q.** And the half-life [2, 8]?
**A.** 5.3 ± 0.5 h

**Q.** And the AUC [2, 8]?
**A.** 1450 ng·h/mL

**Q.** What about the Cmax [2, 8] of the same compound?
**A.** 1970 ng/mL

**Q.** And the Vd [2, 8]?
**A.** 7.5 ± 1.5 L/kg

**Q.** And the AUC(0-inf) [2, 9]?
**A.** 3250 ng·h/mL

**Q.** What about the MRT [2, 9] of the same compound?
**A.** 3.5 ± 0.3 h

**Q.** And the clearance [2, 9]?
**A.** 17.6 ± 1.9 mL/min/kg

**Q.** What about the half-life [2, 9] of the same compound?
**A.** 6.3 ± 0.3 h

**Q.** What about the AUC [2, 9] of the same compound?
**A.** 3170 ng·h/mL

**Q.** And the Cmax [2, 9]?
**A.** 5790 ng/mL

**Q.** What about the Vd [2, 9] of the same compound?
**A.** 4.2 ± 0.9 L/kg

**Q.** And the “conjunctival injection and discharge” value [3]?
**A.** mild conjunctival injection and discharge that did not significantly differ from SME-blank treated animals

**Q.** What about the “corneal staining, corneal opacities and iris hyperemia” value [3] of the same compound?
**A.** did not occur in any of the animals

Reference: US20070060636A1, “High enantiomeric purity dexanabinol for pharmaceutical compositions” (priority 2002, published 2007)
